According to patent US5741671A, “Isolation cloning and expression of transmembrane water channel aquaporin 1(AQP1)” (The Johns Hopkins University, priority 1995, dated 1998):

Legend:
[1] = Stopped-flow osmotic water permeability of control liposomes; type: biochemical; details: mercurial reagent 1 mM
Experimental: Purified AQP1 was stored overnight at 0° C. or frozen for several days at -80° C. prior to reconstitution. Reconstitution into proteoliposomes was carried out in a final volume of 1 ml containing 60-90 μg of purified AQP1 protein in chromatography buffer, 9 mg of bath-sonicated E. coli phospholipid, 1.25% (w/v) octyl glucoside, and 50 mM Tris-HCl (pH 7.5). The mixture was briefly blended on a vortex mixer and incubated for 20 minutes on ice. […] Protein and phospholipid were measured as described by Ambudkar & Maloney (J. Biol. Chem., 1986, 261:10079-10086).
(§1) Permeability measurements. Membrane permeability measurements (Pf) were measured by exposing AQP1 proteoliposomes or control liposomes to an osmotic gradient by rapid mixing with an equal volume of another solution containing buffer A plus sufficient sucrose to increase osmolality in the mixed solutions to a value 120% of that in the original solution. This was performed with a stopped-flow fluorometer (SF.17MV, Applied Photophysics, Leatherhead, U.K.) with a measured dead time of 0.7 ms. […] Extravesicular carboxyfluorescein fluorescence was completely quenched using anti-fluorescein antibody (Harris et al., 1990, Am. J. Physiol. 259:F366-F371). […]

AQP1 = target: T1, AQP1 (Homo sapiens, UniProt P29972); assay: Stopped-flow osmotic water permeability of AQP1 proteoliposomes; type: biochemical; details: CHIP28 proteoliposomes
T1 construct: Human erythrocytes were obtained from blood-bank units stored up to 5 weeks; from tissue; host or cells: human erythrocytes (blood-bank units; small-scale preparations from freshly drawn whole blood)
T1 sequence (P29972 2-269 limits assumed): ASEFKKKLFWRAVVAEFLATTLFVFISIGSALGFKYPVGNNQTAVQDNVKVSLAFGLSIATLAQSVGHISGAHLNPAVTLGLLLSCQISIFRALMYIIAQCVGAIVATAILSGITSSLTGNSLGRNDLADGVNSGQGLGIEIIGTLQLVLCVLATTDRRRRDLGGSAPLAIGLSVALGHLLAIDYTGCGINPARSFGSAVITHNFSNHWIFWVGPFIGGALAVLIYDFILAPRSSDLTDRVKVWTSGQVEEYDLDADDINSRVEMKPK
Excerpt: Preparation AQP1-containing proteoliposomes. Crude Escherichia coli lipid was obtained from Avanti Polar Lipids, Inc., and neutral lipid was removed by acetone/ether wash (Ambudkar & Maloney, 1986, Methods. Enzymol. 125:558-563). The purified E. coli bulk phospholipid is composed of phosphalidylethanolamine (70%), phosphatidylglycerol (15%), and cardiolipin (15%) (Chen & Wilson, […], Proc. Natl. Acad. Sci. USA 83:2652-2656). E. coli bulk phospholipid was employed since it has previously been used for functional reconstitution of several transport proteins including the glucose transporter of RBCs (Maloney & Ambudkar, 1989, Arch. Biochem. Biophys. 269:1-10; Chen et al., 1986, Proc. Natl. Acad. Sci. USA 83:2652-2656).
Highly purified AQP1 protein was incorporated into proteoliposomes by detergent dilution; control liposomes were formed in an identical manner without AQP1 protein.
Purified AQP1 was stored overnight at 0° C. or frozen for several days at -80° C. prior to reconstitution. Reconstitution into proteoliposomes was carried out in a final volume of 1 ml containing 60-90 μg of purified AQP1 protein in chromatography buffer, 9 mg of bath-sonicated E. coli phospholipid, 1.25% (w/v) octyl glucoside, and 50 mM Tris-HCl (pH 7.5). The mixture was briefly blended on a vortex mixer and incubated for 20 minutes on ice. Proteoliposomes (or liposomes prepared without protein) were formed at room temperature by rapidly injecting the mixture into 25 ml of buffer A [50 mM MOPS, pH 7.5, 150 mM N-methyl-D-glucamine (NMDG) chloride also containing 10-15 mM carboxyfluorescein, 1 mM dithiothreitol, and 0.5 mM PMSF]. For the measurement of proton permeability, proteoliposomes and liposomes were loaded with buffer B (5 mM MOPS, pH 7.5, 150 mM KCl, 0.5 mM carboxyfluorescein, 1 mM dithiothreitol, and 0.5 mM PMSF). The suspension was incubated for 20 minutes at room temperature. Proteoliposomes or liposomes were collected by centrifugation for 1 hour at 123000×g in a Beckman Type 42.1 rotor at 4° C. The pellet was resuspended in 8 ml of buffer A or B and then centrifuged for 1 hour at 152000×g in a Beckman Type 50 Ti rotor. Proteoliposomes or liposomes were resuspended in 300 μl of buffer A or B and stored at 4° C. for 16-24 hours. Typically 50% (54±6%, n=5) of the AQP1 protein and 70% of the phospholipid were recovered in proteoliposomes. The lipid to protein ratio was in the range of 120:1 to 219:1. […] Protein and phospholipid were measured as described by Ambudkar & Maloney (J. Biol. Chem., 1986, 261:10079-10086).
as §1, with “259:F366-F371). Within the range of osmolalities used in these experiments, the vesicles acted as perfect osmometers, and relative volume (absolute volume divided by initial volume) was linearly related to relative fluorescence (absolute fluorescence divided by initial fluorescence).” for “259:F366-F371).”

human RBC = details: cited from earlier work
CHIP28 water channel = target: T2, CHIP28 water channel (Homo sapiens, UniProt P29972); assay: Urea permeability of CHIP28 proteoliposomes; type: biochemical; details: internal urea 374 mM, external urea 187 mM
T2 construct: Human erythrocytes were obtained from blood-bank units stored up to 5 weeks; from tissue; host or cells: human erythrocytes (blood-bank units; small-scale preparations from freshly drawn whole blood)
T2 sequence (P29972 2-269 limits assumed): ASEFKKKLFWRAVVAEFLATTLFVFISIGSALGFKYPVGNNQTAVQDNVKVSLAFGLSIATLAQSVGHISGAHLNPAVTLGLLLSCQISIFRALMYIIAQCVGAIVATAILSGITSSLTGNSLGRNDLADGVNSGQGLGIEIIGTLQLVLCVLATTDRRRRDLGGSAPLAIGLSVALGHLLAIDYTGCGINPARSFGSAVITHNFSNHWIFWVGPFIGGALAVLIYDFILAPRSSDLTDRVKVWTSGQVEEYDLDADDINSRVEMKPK
Excerpt: The general formula defining solute exit from a vesicle is
Jurea =d(urea)/dt=Purea (SA)ΔC (2)
where Jurea is urea flux, Purea is the permeability coefficient for urea, SA is the surface area of the vesicle, and ΔC is the difference in urea concentration between the inside and outside of the vesicle, which diminishes as the system reaches equilibrium. If
Using parameters from the single-exponential curve fit to the data and the relationship between relative volume and relative fluorescence, equation 4 was solved for Purea using MathCAD.
Exclusion of urea. To determine the selectivity of the CHIP28 water channel, CHIP28-containing liposomes were loaded with urea at a level similar to the measured Km for urea transport in RBCs and were abruptly mixed with solutions of identical osmolality containing half the urea concentration. Urea permeability was determined by monitoring the relative fluorescence of entrapped carboxyfluorescein during the urea efflux. Solutions inside and outside the vesicle were of equal osmolality but differed in the concentrations of permeant and impermeant solutes (Grossman et al., 1992, Am. J. Physiol., in press). Thus, internal urea concentration was 374 mM and external urea concentration was 187 mM with the remaining osmolality balanced by 187 mM sucrose. […]

Q: Which results are given for `O=S(=O)([O-])c1cc[c]([Hg][Cl])cc1` [pCMBS, p-chloromercuribenzene sulfonate]?
A: effect on the Pf of control liposomes [1]: Neither pCMBS nor HgCl2 had any effect; Pf after mercurial treatment (AQP1; 1 mM pCMBS, 25 minutes at 37° C.): 0.009±0.005 cm/s; extent of inhibition of Pf at 5 and 10 minutes (AQP1; 1 mM, 37° C.): partial

Q: What does the source list for `O=C(CCc1ccc(O)cc1)c1c(O)cc(O)cc1O` [Phloretin]?
A: effect on urea flux (human RBC): inhibits urea flux; effect on water flux (human RBC): without altering water flux

B1: AQP1: Mr 28,000 transmembrane water channel protein of human erythrocytes, 269 amino acids (protein)
chain: ASEFKKKLFWRAVVAEFLATTLFVFISIGSALGFKYPVGNNQTAVQDNVKVSLAFGLSIATLAQSVGHISGAHLNPAVTLGLLLSCQISIFRALMYIIAQCVGAIVATAILSGITSSLTGNSLGRNDLADGVNSGQGLGIEIIGTLQLVLCVLATTDRRRRDLGGSAPLAIGLSVALGHLLAIDYTGCGINPARSFGSAVITHNFSNHWIFWVGPFIGGALAVLIYDFILAPRSSDLTDRVKVWTSGQVEEYDLDADDINSRVEMKPK
Q: With B1 as the molecule, how does the “urea permeability versus control liposomes” value (CHIP28 water channel) read?
A: Its value is “did not augment urea permeability”.
